Measured values as given in the NIST ThermoML archive (doi:10.1021/acs.jced.7b00065).
± gives the expanded uncertainty stated by the source.

Legend:
[1] = Crystal; DTA
[2] = Molar enthalpy of transition or fusion; details: Crystal; DSC

Cn1c(=O)c2[nH]cnc2n(C)c1=O [3,7-dihydro-1,3-dimethyl-1H-purine-2,6-dione]
Normal melting temperature [1]: 272.03 ± 1.1 °C | Molar enthalpy of transition or fusion [2]: 6.91 ± 0.43 kcal/mol
